According to ChEMBL document CHEMBL5303573, “Mapping human microbiome drug metabolism by gut bacteria and their genes” (Nature, 2019):

Experiment: The drug is tested on Bacteroides finegoldii strain: DSM17565 for biotransformation. The drug concentrations were measured before and after a 12-h incubation by liquid-chromatography-coupled mass spectrometry (LC–MS)
Conditions: 2 µM

SMILES | Bacterial Biotransformation
CN(C)CCOC(c1ccc(Cl)cc1)c1ccccn1.O=C(O)/C=C\C(=O)O (configuration not stated) [CARBINOXAMINE MALEATE] | Compound NOT metabolized
Cc1nc2n(c(=O)c1CCN1CCC(c3noc4cc(F)ccc34)CC1)CCCC2 [RISPERIDONE] | Compound NOT metabolized

Experiment: The drug is tested on Bacteroides fragilis strain: ATCC43859 for biotransformation. The drug concentrations were measured before and after a 12-h incubation by liquid-chromatography-coupled mass spectrometry (LC–MS)
Conditions: 2 µM

SMILES | Bacterial Biotransformation
Cc1nc2n(c(=O)c1CCN1CCC(c3noc4cc(F)ccc34)CC1)CCCC2 [RISPERIDONE] | Compound metabolized

Conditions: parabacteroides distasonis, 12 h, 2 µM
Description: The drug is tested on Parabacteroides distasonis strain: ATCC8503 for biotransformation. The drug concentrations were measured before and after a 12-h incubation by liquid-chromatography-coupled mass spectrometry (LC–MS)

SMILES | Bacterial Biotransformation
CN(C)CCOC(c1ccc(Cl)cc1)c1ccccn1.O=C(O)/C=C\C(=O)O (configuration not stated) [CARBINOXAMINE MALEATE] | Compound NOT metabolized
Cc1nc2n(c(=O)c1CCN1CCC(c3noc4cc(F)ccc34)CC1)CCCC2 [RISPERIDONE] | Compound NOT metabolized

Experiment: The drug is tested on Collinsella aerofaciens strain: ATCC25986 for biotransformation. The drug concentrations were measured before and after a 12-h incubation by liquid-chromatography-coupled mass spectrometry (LC–MS)
Conditions: 2 µM

SMILES | Bacterial Biotransformation
CN(C)CCOC(c1ccc(Cl)cc1)c1ccccn1.O=C(O)/C=C\C(=O)O (configuration not stated) [CARBINOXAMINE MALEATE] | Compound NOT metabolized
Cc1nc2n(c(=O)c1CCN1CCC(c3noc4cc(F)ccc34)CC1)CCCC2 [RISPERIDONE] | Compound NOT metabolized

Experiment: The drug is tested on Bacteroides fragilis strain: HMW615 for biotransformation. The drug concentrations were measured before and after a 12-h incubation by liquid-chromatography-coupled mass spectrometry (LC–MS)
Conditions: 2 µM

SMILES | Bacterial Biotransformation
CN(C)CCOC(c1ccc(Cl)cc1)c1ccccn1.O=C(O)/C=C\C(=O)O (configuration not stated) [CARBINOXAMINE MALEATE] | Compound NOT metabolized

Experiment: The drug is tested on Clostridium sporogenes strain: ATCC15579 for biotransformation. The drug concentrations were measured before and after a 12-h incubation by liquid-chromatography-coupled mass spectrometry (LC–MS)
Conditions: 2 µM

SMILES | Bacterial Biotransformation
CN(C)CCOC(c1ccc(Cl)cc1)c1ccccn1.O=C(O)/C=C\C(=O)O (configuration not stated) [CARBINOXAMINE MALEATE] | Compound NOT metabolized
Cc1nc2n(c(=O)c1CCN1CCC(c3noc4cc(F)ccc34)CC1)CCCC2 [RISPERIDONE] | Compound metabolized

Conditions: bacteroides intestinalis, 12 h, 2 µM
Description: The drug is tested on Bacteroides intestinalis strain: DSM17393 for biotransformation. The drug concentrations were measured before and after a 12-h incubation by liquid-chromatography-coupled mass spectrometry (LC–MS)

SMILES | Bacterial Biotransformation
CN(C)CCOC(c1ccc(Cl)cc1)c1ccccn1.O=C(O)/C=C\C(=O)O (configuration not stated) [CARBINOXAMINE MALEATE] | Compound NOT metabolized
Cc1nc2n(c(=O)c1CCN1CCC(c3noc4cc(F)ccc34)CC1)CCCC2 [RISPERIDONE] | Compound NOT metabolized

Experiment: The drug is tested on Coprococcus comes strain: ATCC27758 for biotransformation. The drug concentrations were measured before and after a 12-h incubation by liquid-chromatography-coupled mass spectrometry (LC–MS)
Assay type: ADME
Design: dose 2 uM, timepoint 0 vs 12 hours
Conditions: 2 µM

SMILES | Bacterial Biotransformation
CN(C)CCOC(c1ccc(Cl)cc1)c1ccccn1.O=C(O)/C=C\C(=O)O (configuration not stated) [CARBINOXAMINE MALEATE] | Compound NOT metabolized
Cc1nc2n(c(=O)c1CCN1CCC(c3noc4cc(F)ccc34)CC1)CCCC2 [RISPERIDONE] | Compound metabolized

Experiment: The drug is tested on Eubacterium hallii strain: DSM3353 for biotransformation. The drug concentrations were measured before and after a 12-h incubation by liquid-chromatography-coupled mass spectrometry (LC–MS)
Conditions: anaerobutyricum hallii, 2 µM

SMILES | Bacterial Biotransformation
CN(C)CCOC(c1ccc(Cl)cc1)c1ccccn1.O=C(O)/C=C\C(=O)O (configuration not stated) [CARBINOXAMINE MALEATE] | Compound NOT metabolized
Cc1nc2n(c(=O)c1CCN1CCC(c3noc4cc(F)ccc34)CC1)CCCC2 [RISPERIDONE] | Compound metabolized

Experiment: The drug is tested on Bifidobacterium longum subsp. Infantis strain: CCUG52486 for biotransformation. The drug concentrations were measured before and after a 12-h incubation by liquid-chromatography-coupled mass spectrometry (LC–MS)
Conditions: 2 µM

SMILES | Bacterial Biotransformation
CN(C)CCOC(c1ccc(Cl)cc1)c1ccccn1.O=C(O)/C=C\C(=O)O (configuration not stated) [CARBINOXAMINE MALEATE] | Compound NOT metabolized
Cc1nc2n(c(=O)c1CCN1CCC(c3noc4cc(F)ccc34)CC1)CCCC2 [RISPERIDONE] | Compound NOT metabolized

Experiment: The drug is tested on Providencia rettgeri strain: DSM1131 for biotransformation. The drug concentrations were measured before and after a 12-h incubation by liquid-chromatography-coupled mass spectrometry (LC–MS)
Assay type: ADME
Design: dose 2 uM, timepoint 0 vs 12 hours
Conditions: 2 µM

SMILES | Bacterial Biotransformation
CN(C)CCOC(c1ccc(Cl)cc1)c1ccccn1.O=C(O)/C=C\C(=O)O (configuration not stated) [CARBINOXAMINE MALEATE] | Compound NOT metabolized
Cc1nc2n(c(=O)c1CCN1CCC(c3noc4cc(F)ccc34)CC1)CCCC2 [RISPERIDONE] | Compound NOT metabolized

Conditions: anaerostipes sp., 12 h, 2 µM
Description: The drug is tested on Anaerostipes sp. strain: fecal isolate for biotransformation. The drug concentrations were measured before and after a 12-h incubation by liquid-chromatography-coupled mass spectrometry (LC–MS)

SMILES | Bacterial Biotransformation
CN(C)CCOC(c1ccc(Cl)cc1)c1ccccn1.O=C(O)/C=C\C(=O)O (configuration not stated) [CARBINOXAMINE MALEATE] | Compound NOT metabolized

Experiment: The drug is tested on Odoribacter splanchnicus strain: fecal isolate for biotransformation. The drug concentrations were measured before and after a 12-h incubation by liquid-chromatography-coupled mass spectrometry (LC–MS)
Conditions: 2 µM

SMILES | Bacterial Biotransformation
CN(C)CCOC(c1ccc(Cl)cc1)c1ccccn1.O=C(O)/C=C\C(=O)O (configuration not stated) [CARBINOXAMINE MALEATE] | Compound NOT metabolized
Cc1nc2n(c(=O)c1CCN1CCC(c3noc4cc(F)ccc34)CC1)CCCC2 [RISPERIDONE] | Compound metabolized

Experiment: The drug is tested on Enterobacter cancerogenus strain: ATCC35316 for biotransformation. The drug concentrations were measured before and after a 12-h incubation by liquid-chromatography-coupled mass spectrometry (LC–MS)
Conditions: 2 µM

SMILES | Bacterial Biotransformation
CN(C)CCOC(c1ccc(Cl)cc1)c1ccccn1.O=C(O)/C=C\C(=O)O (configuration not stated) [CARBINOXAMINE MALEATE] | Compound NOT metabolized
Cc1nc2n(c(=O)c1CCN1CCC(c3noc4cc(F)ccc34)CC1)CCCC2 [RISPERIDONE] | Compound metabolized

Conditions: bacteroides fragilis, 12 h, 2 µM
Description: The drug is tested on Bacteroides fragilis strain: 3397 (T10) for biotransformation. The drug concentrations were measured before and after a 12-h incubation by liquid-chromatography-coupled mass spectrometry (LC–MS)

SMILES | Bacterial Biotransformation
CN(C)CCOC(c1ccc(Cl)cc1)c1ccccn1.O=C(O)/C=C\C(=O)O (configuration not stated) [CARBINOXAMINE MALEATE] | Compound NOT metabolized
Cc1nc2n(c(=O)c1CCN1CCC(c3noc4cc(F)ccc34)CC1)CCCC2 [RISPERIDONE] | Compound NOT metabolized

Experiment: The drug is tested on Bacteroides caccae strain: ATCC43185 for biotransformation. The drug concentrations were measured before and after a 12-h incubation by liquid-chromatography-coupled mass spectrometry (LC–MS)
Conditions: 2 µM

SMILES | Bacterial Biotransformation
CN(C)CCOC(c1ccc(Cl)cc1)c1ccccn1.O=C(O)/C=C\C(=O)O (configuration not stated) [CARBINOXAMINE MALEATE] | Compound NOT metabolized
Cc1nc2n(c(=O)c1CCN1CCC(c3noc4cc(F)ccc34)CC1)CCCC2 [RISPERIDONE] | Compound metabolized

Conditions: bacteroides thetaiotaomicron, 12 h, 2 µM
Description: The drug is tested on Bacteroides thetaiotaomicron strain: 3731 for biotransformation. The drug concentrations were measured before and after a 12-h incubation by liquid-chromatography-coupled mass spectrometry (LC–MS)

SMILES | Bacterial Biotransformation
CN(C)CCOC(c1ccc(Cl)cc1)c1ccccn1.O=C(O)/C=C\C(=O)O (configuration not stated) [CARBINOXAMINE MALEATE] | Compound NOT metabolized
Cc1nc2n(c(=O)c1CCN1CCC(c3noc4cc(F)ccc34)CC1)CCCC2 [RISPERIDONE] | Compound NOT metabolized

Experiment: The drug is tested on Ruminococcus lactaris strain: ATCC29176 for biotransformation. The drug concentrations were measured before and after a 12-h incubation by liquid-chromatography-coupled mass spectrometry (LC–MS)
Conditions: 2 µM

SMILES | Bacterial Biotransformation
CN(C)CCOC(c1ccc(Cl)cc1)c1ccccn1.O=C(O)/C=C\C(=O)O (configuration not stated) [CARBINOXAMINE MALEATE] | Compound NOT metabolized
Cc1nc2n(c(=O)c1CCN1CCC(c3noc4cc(F)ccc34)CC1)CCCC2 [RISPERIDONE] | Compound metabolized

Experiment: The drug is tested on Bacteroides xylanisolvens strain: DSM18836 for biotransformation. The drug concentrations were measured before and after a 12-h incubation by liquid-chromatography-coupled mass spectrometry (LC–MS)
Conditions: 2 µM

SMILES | Bacterial Biotransformation
CN(C)CCOC(c1ccc(Cl)cc1)c1ccccn1.O=C(O)/C=C\C(=O)O (configuration not stated) [CARBINOXAMINE MALEATE] | Compound NOT metabolized
Cc1nc2n(c(=O)c1CCN1CCC(c3noc4cc(F)ccc34)CC1)CCCC2 [RISPERIDONE] | Compound NOT metabolized

Experiment: The drug is tested on Clostridium scindens strain: ATCC35704 for biotransformation. The drug concentrations were measured before and after a 12-h incubation by liquid-chromatography-coupled mass spectrometry (LC–MS)
Conditions: 2 µM

SMILES | Bacterial Biotransformation
CN(C)CCOC(c1ccc(Cl)cc1)c1ccccn1.O=C(O)/C=C\C(=O)O (configuration not stated) [CARBINOXAMINE MALEATE] | Compound NOT metabolized
Cc1nc2n(c(=O)c1CCN1CCC(c3noc4cc(F)ccc34)CC1)CCCC2 [RISPERIDONE] | Compound metabolized
